Assays:
[1] = Thermogravimetric (TG) analysis; assay type: physicochemical; settings: 10°C/min between 30 and 600°C, under nitrogen; no weight loss at lower temperatures
Method: Thermogravimetric analyses (TGA) were recorded in a Mettler Toldo SDTA851 e. Samples of approximately 2 mg were weighted into open 40 µlalumina crucibles, and heated at 10°C/min between 30 and 600°C, under nitrogen (80 ml/min).

[2] = Behaviour of the solid form under pressure stress; assay type: physicochemical; settings: 98 kN (98.07 kN), 13 mm diameter samples, 1, 5 and 30 minutes
Method: Samples of the a-Polymorph were submitted to pressure stress for various periods of time (1, 5 and 30 minutes) to investigate the effect of pressure on the solid form. The pressure (98kN) used was chosen to correspond to correspond to the pressure at which planar tablets, of a diameter between 10 and 15 mm, are made. […] Precisely, 13 mm diameter samples of the polymorph were submitted to 98.07 kN of pressure using a Specac press for 1, 5 and 30 minutes and analysed, with no difference.

Herg channel = Herg channel (Homo sapiens, UniProt Q12809); test: Herg channel affinity; assay type: binding; settings: general statement, no value given; low risk of QT prolongation expected
Herg channel, sequence (Q12809 whole entry): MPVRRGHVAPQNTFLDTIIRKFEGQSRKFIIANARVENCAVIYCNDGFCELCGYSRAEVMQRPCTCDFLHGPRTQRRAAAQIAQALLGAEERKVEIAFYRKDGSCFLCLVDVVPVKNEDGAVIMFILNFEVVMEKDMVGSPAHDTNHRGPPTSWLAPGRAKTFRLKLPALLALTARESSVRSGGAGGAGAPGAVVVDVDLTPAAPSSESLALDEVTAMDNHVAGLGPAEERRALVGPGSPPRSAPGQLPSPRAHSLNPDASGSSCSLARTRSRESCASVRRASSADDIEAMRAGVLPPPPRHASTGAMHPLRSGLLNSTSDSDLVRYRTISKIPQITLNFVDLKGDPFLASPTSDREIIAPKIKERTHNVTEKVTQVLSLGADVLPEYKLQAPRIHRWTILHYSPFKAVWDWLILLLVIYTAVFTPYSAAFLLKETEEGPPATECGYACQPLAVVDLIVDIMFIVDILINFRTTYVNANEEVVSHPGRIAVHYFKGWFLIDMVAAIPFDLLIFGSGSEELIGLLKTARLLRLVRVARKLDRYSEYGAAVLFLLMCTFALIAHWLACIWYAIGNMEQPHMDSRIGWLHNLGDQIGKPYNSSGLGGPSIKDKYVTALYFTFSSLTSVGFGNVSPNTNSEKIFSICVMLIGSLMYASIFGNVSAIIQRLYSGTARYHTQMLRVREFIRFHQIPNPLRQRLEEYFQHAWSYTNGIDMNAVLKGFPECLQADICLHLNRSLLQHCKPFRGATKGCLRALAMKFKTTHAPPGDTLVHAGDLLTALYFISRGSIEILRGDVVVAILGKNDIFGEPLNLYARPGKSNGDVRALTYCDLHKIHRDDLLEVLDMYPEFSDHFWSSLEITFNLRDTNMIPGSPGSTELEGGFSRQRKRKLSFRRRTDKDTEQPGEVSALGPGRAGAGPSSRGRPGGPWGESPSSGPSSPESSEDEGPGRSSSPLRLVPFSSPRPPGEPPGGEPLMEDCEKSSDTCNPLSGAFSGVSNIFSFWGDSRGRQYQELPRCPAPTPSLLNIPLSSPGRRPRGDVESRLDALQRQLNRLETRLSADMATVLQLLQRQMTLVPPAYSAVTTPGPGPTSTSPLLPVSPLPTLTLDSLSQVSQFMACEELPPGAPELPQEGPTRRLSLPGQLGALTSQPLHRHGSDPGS

temperature of weight loss due to decomposition (TG analysis) [1]	effect of pressure on the solid form (phase change) [2]	Structure (SMILES)	Herg channel affinity (Herg channel)
higher than 280 °C	did not induce any phase change	O=C(NN1CCCCC1)C1=NN(c2ccc(Cl)cc2Cl)C(c2ccc(Cl)cc2)C1 (racemic) [α-Polymorph, α-Polymorph of N-piperidinyl-5-(4-chlorophenyl)-1-(2,4-dichlorophenyl)-4,5-dihydro-1H-pyrazole-3-carboxamide]	–
–	–	O=C(NN1CCCCC1)C1=NN(c2ccc(Cl)cc2Cl)C(c2ccc(Cl)cc2)C1 (racemic) [COMPOUND C, N-piperidinyl-5-(4-chlorophenyl)-1-(2,4-dichlorophenyl)-4,5-dihydro-1H-pyrazole-3-carboxamide]	relatively weak

— patent publication EP1947089A1, “A-polymorph of a substituted pyrazoline, its preparation and use as medicaments” (Laboratorios del Dr. Esteve S.A., priority 2007, dated 2008)
